# From patent US12673936B2, “Isoindolinone compounds, and uses thereof” (HANGZHOU GLUBIO PHARMACEUTICAL CO., LTD., priority 2021, dated 2026)
# Experiments:
# HiBiT tagged CK1α = HiBiT tagged CK1α (Homo sapiens, UniProt P48729+Q96SW2); test: CK1α degradation assay (HiBiT assay); format: cell-based; settings: 20 hours; for Dmax: HT-1080, HT-1080 cells; for Dmax / HiBiT CK1α: Dmax: maximum CK1α degradation; for DC50 / HiBiT CK1α: Dmax: HT-1080 cells; for DC50: concentration at 50% CK1α degradation
# Protocol: (§1) CK1α and GSPT1 Degradation Assay (HiBiT Assay) The following is an example of an assay that can be used to determine the dose-dependent CK1α and GSPT1 degradation activities of test compounds in a human cell line such as HT-1080 ([…]). HT-1080 cells stably overexpressing wild-type CRBN, GSPT1A(1-138)/G575N mutant and HiBiT tagged CK1α or GSPT1 were seeded into 384-well plates (Cat #3764, Corning) pre-spotted with DMSO or test compounds. Increasing concentrations of test compounds (ranging from 3.162×10^-4 μM to 10 μM at a 3.16-fold increment) or DMSO were dispensed into an empty 384-well plate using an Echo Acoustic Liquid Handler (Beckman Coulter). About 10,000 cells in complete DMEM cell culture media were seeded per well. […] Luminescence was then measured with an EnVision plate reader (PerkinElmer) or a PHERAstar plate reader (BMG Labtech). All CK1α or GSPT1 degradation curves were processed using Collaborative Drug Discovery Vault softwares (Burlingame, CA., www.collaborativedrug.com). CK1α or GSPT1 levels in compound-treated wells were normalized to that of DMSO control and expressed as Percent of Control (PoC, y). […]
# HiBiT tagged GSPT1 = HiBiT tagged GSPT1 (Homo sapiens, UniProt P15170+Q96SW2); test: GSPT1 degradation assay (HiBiT assay); format: cell-based; settings: 20 hours, maximum GSPT1 degradation; for Dmax: HT-1080, HT-1080 cells; for HiBiT GSPT1: Dmax: HT-1080 cells
# Protocol: as §1
# Sequence of HiBiT tagged CK1α (P48729 whole entry): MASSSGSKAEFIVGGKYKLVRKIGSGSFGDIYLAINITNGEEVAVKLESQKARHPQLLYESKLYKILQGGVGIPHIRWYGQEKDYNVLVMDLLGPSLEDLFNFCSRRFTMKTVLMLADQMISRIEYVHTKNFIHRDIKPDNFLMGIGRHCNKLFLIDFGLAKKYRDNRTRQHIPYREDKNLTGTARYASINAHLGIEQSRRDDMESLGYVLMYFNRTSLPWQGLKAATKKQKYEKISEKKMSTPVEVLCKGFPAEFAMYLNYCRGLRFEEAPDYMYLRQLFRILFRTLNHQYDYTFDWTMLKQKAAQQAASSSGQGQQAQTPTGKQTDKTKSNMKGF
# Sequence of HiBiT tagged CK1α (Q96SW2 whole entry): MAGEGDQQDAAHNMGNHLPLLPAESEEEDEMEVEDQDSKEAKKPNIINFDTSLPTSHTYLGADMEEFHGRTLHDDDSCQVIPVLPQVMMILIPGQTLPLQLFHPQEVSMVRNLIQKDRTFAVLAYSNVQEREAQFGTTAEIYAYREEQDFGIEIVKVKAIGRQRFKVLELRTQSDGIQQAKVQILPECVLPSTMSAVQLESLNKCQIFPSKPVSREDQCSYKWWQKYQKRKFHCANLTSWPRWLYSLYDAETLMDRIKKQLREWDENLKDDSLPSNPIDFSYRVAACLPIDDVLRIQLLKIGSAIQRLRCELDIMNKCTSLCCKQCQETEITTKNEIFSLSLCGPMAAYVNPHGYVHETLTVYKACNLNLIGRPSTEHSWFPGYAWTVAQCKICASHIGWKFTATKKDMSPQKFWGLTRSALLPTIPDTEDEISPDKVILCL
# Sequence of HiBiT tagged CK1α (Q16531 whole entry partner): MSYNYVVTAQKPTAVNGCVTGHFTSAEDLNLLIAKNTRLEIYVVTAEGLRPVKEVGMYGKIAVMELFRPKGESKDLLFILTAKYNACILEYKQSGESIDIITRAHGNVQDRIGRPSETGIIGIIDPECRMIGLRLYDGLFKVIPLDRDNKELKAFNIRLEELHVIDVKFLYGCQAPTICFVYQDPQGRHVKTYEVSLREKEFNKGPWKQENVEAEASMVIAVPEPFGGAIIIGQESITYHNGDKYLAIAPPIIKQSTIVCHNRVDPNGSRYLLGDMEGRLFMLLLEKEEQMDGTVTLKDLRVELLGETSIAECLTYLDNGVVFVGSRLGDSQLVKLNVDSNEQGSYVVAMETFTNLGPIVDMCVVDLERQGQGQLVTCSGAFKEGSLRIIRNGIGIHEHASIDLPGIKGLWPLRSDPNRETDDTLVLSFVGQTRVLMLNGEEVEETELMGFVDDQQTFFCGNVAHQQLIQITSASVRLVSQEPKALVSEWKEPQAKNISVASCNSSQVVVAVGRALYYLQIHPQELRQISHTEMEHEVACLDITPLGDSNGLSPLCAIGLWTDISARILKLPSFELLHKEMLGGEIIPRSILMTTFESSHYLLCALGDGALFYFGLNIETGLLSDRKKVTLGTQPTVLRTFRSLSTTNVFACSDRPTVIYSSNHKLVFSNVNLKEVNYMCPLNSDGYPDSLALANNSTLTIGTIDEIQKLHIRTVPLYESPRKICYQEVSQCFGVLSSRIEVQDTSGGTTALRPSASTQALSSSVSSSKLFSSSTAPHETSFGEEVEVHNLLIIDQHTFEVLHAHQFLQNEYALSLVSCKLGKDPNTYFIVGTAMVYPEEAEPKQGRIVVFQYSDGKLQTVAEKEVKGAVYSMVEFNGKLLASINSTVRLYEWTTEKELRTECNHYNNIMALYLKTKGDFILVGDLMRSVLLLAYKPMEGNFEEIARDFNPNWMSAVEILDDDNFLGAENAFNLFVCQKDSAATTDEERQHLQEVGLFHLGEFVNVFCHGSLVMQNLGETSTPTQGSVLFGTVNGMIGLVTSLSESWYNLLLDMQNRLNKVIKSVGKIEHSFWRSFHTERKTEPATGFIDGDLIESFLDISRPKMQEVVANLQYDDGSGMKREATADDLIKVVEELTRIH
# Sequence of HiBiT tagged GSPT1 (P15170 whole entry): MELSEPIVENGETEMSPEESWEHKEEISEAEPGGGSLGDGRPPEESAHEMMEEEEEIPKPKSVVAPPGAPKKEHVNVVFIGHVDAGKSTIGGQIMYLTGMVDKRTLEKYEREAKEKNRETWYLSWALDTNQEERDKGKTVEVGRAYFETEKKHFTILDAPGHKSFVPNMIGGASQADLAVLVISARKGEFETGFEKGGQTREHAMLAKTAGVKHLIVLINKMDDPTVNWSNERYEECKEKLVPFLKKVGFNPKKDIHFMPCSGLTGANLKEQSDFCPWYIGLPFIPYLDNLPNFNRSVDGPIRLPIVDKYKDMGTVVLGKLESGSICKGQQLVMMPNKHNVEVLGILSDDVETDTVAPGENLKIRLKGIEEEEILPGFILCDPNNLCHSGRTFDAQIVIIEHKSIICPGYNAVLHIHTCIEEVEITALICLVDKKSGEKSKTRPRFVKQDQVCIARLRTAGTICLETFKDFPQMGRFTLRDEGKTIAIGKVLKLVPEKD
# Sequence of HiBiT tagged GSPT1 (Q96SW2 whole entry): as the sequence (Q96SW2 whole entry) above
# Sequence of HiBiT tagged GSPT1 (Q16531 whole entry partner): as the sequence (Q16531 whole entry partner) above
SMILES,Dmax (HiBiT tagged CK1α),DC50 (HiBiT tagged CK1α),Dmax (HiBiT tagged GSPT1),HiBiT CK1α: Dmax (HiBiT tagged CK1α),HiBiT GSPT1: Dmax (HiBiT tagged GSPT1)
"O=C1CCC(N2Cc3cc(C(=O)NC(c4c(F)cccc4F)C4CCC4)ccc3C2=O)C(=O)N1 (stereo not drawn) [Compound 22, N-(cyclobutyl(2,6-difluorophenyl)methyl)-2-(2,6-dioxopiperidin-3-yl)-1-oxoisoindoline-5-carboxamide]",70.7%,79.7 nM,48.3%,–,–
"O=C1CCC(N2Cc3cc(C(=O)N[C@H](c4ccc(F)cc4)C4CCOCC4)ccc3C2=O)C(=O)N1 (stereo in doubt) [Compound 38, 2-(2,6-dioxopiperidin-3-yl)-N-((*S)-(4-fluorophenyl)(tetrahydro-2H-pyran-4-yl)methyl)-1-oxoisoindoline-5-carboxamide]",64.1%,218 nM,19.9%,–,–
"O=C1CC[C@H](N2Cc3cc(C(=O)N[C@H](c4ccc(F)cc4)C4CCCC4)ccc3C2=O)C(=O)N1 (racemic) [Compound 63, N-((*S)-cyclopentyl(4-fluorophenyl)methyl)-2-((S)-2,6-dioxopiperidin-3-yl)-1-oxoisoindoline-5-carboxamide]",–,53.5 nM,–,72.2%,29%
"O=C1CC[C@@H](N2Cc3cc(C(=O)NC(c4ccc(F)cc4)C4CCCC4)ccc3C2=O)C(=O)N1 (single isomer, unassigned) [Compound 62, N-((*S)-cyclopentyl(4-fluorophenyl)methyl)-2-((R)-2,6-dioxopiperidin-3-yl)-1-oxoisoindoline-5-carboamide]",69.8%,77.7 nM,27.5%,–,–
"O=C1CCC(N2Cc3cc(C(=O)N[C@H](c4cccc(F)c4)C4CC4)ccc3C2=O)C(=O)N1 (stereo in doubt) [Compound 26, N-((*S)-cyclopropyl(3-fluorophenyl)methyl)-2-(2,6-dioxopiperidin-3-yl)-1-oxoisoindoline-5-carboxamide]",58.4%,417 nM,30.7%,–,–
"O=C1CC[C@H](N2Cc3cc(C(=O)N[C@H](c4ccc(Cl)cc4F)C4CCC4)ccc3C2=O)C(=O)N1 (racemic) [Compound 57, N-((*S)-(4-chloro-2-fluorophenyl)(cyclobutyl)methyl)-2-((*S)-2,6-dioxopiperidin-3-yl)-1-oxoisoindoline-5-carboxamide]",–,128 nM,–,64.4%,19.1%
"O=C1CCC(N2Cc3cc(C(=O)N[C@H](c4ccc(F)cc4)C4(O)CC4)ccc3C2=O)C(=O)N1 (stereo partly drawn) [Compound 65, 2-(2,6-dioxopiperidin-3-yl)-N—((R)-(4-fluorophenyl)(1-hydroxycyclopropyl)methyl)-1-oxoisoindoline-5-carboxamide]",59.6%,721 nM,23.1%,–,–
"O=C1CCC(N2Cc3cc(C(=O)NC(c4cccc(F)c4)C4CCC4)ccc3C2=O)C(=O)N1 (stereo not drawn) [Compound 23, N-(cyclobutyl(3-fluorophenyl)methyl)-2-(2,6-dioxopiperidin-3-yl)-1-oxoisoindoline-5-carboxamide]",61.3%,198 nM,32%,–,–
"O=C1CCC(N2Cc3cc(C(=O)NC(c4ccc(F)c(F)c4)C4CCC4)ccc3C2=O)C(=O)N1 (single isomer, unassigned) [Compound 47, N-((*R)-cyclobutyl(3,4-difluorophenyl)methyl)-2-((*R)-2,6-dioxopiperidin-3-yl)-1-oxoisoindoline-5-carboxamide]",56.1%,2960 nM,29.7%,–,–
"O=C1CCC(N2Cc3cc(C(=O)NC(c4ncccc4Cl)C4CC4)ccc3C2=O)C(=O)N1 (stereo not drawn) [Compound 16, N-((3-chloropyridin-2-yl)(cyclopropyl)methyl)-2-(2,6-dioxopiperidin-3-yl)-1-oxoisoindoline-5-carboxamide]",62.2%,303 nM,44.9%,–,–
"O=C1CCC(N2Cc3cc(C(=O)N[C@@H](c4cccc(Cl)c4)C4CC4)ccc3C2=O)C(=O)N1 (stereo in doubt) [Compound 27, N-((*R)-(3-chlorophenyl)(cyclopropyl)methyl)-2-(2,6-dioxopiperidin-3-yl)-1-oxoisoindoline-5-carboxamide]",59.3%,345 nM,40.3%,–,–
